Like-named read-outs stand apart in the source and are kept apart here.
Test system: GM-HSPC and their progeny
Settings: for Enrichment of frequency of CD45+/GFP+ cells in spleen and bone marrow: necropsy 11 weeks after transplantation
Protocol: All animals except control mice received 20 mg/kg O^6BG (Sigma-Aldrich, St. Louis, Mo.) followed by 5 mg/kg BCNU (Sigma-Aldrich, St. Louis, Mo.) mouse 1.5 hour later via IP injection. Drug doses were administered at either at the 7th and 8th or 7th, 8th, and 9th weeks post-transplantation. O^6BG was prepared in 35% PEG-400 (Sigma-Aldrich, St. Louis, Mo.) and 60% injectable saline.
Lentiviral vector was produced by calcium phosphate precipitation in HEK293T cells as previously described by Li M J et al. (2005). CD34+ cells were pre-stimulated overnight in SFT6. Lentiviral transduction was conducted at 1×10^6 cells/mL on Retronectin™ (Takara, Otsu-Shiga Japan)-coated non-tissue culture T-75 flask for 24 h in the presence of […] rapamycin (Sigma-Aldrich, St. Louis, Mo.). Lentivirus and rapamycin were removed and cells were washed once before being resuspended for transplantation in 0.9% NaCl saline solution with Fc/IL-7 as described above.
Mice were necropsied at 16 or 25 weeks post transplantation for analysis of engraftment. Single cell suspensions of bone marrow (femurs) and spleen were prepared by mechanical dissociation and red cells lysed using ACK lysis Buffer (Sigma-Aldrich, St. Louis, Mo.). All cell suspensions were pre-treated with human immunoglobulin (GammaGard, Baxter Healthcare Corp. Deerfield, Ill.) for 30 minutes to block nonspecific antibody staining. Cell suspensions were stained with a human pan-leukocyte antibody to CD45-PC5 (BioLegendR, San Diego, Calif.), and lineage specific antihuman, CD3-ECD, CD4-APC, CD14-APC-Alexa-750, CD19-PE (Invitrogen, Carlsbad, Calif.), and CD8β-PC5 (Beckman Coulter, Brea, Calif.), for 20 minutes and washed 2 times with 1 mL of PBS containing 0.1% BSA (Sigma-Aldrich, St Louis, Mo.). BM cells were stained with antibodies to human CD45-PC5, CD34-PC7, CD45-ECD (Beckman Coulter, Brea, Calif.), CD33-PC5 (BD Biosciences, San Diego, Calif.), CD19-PE, and CD14-APC-Alexa750 (Invitrogen, Carlsbad, Calif.) for 20 minutes and washed 2 times with 1 mL of PBS containing 0.1% BSA. To establish analytical gates and background staining, bone marrow and spleen samples from 2-3 mice that received no human cells mice were stained with the same antibody panel. Samples were analyzed using a Gallios flow cytometer (Beckman Coulter, Hialeah, Fla.) and data analyzed with FCS Express software (De Novo Software, Los Angeles, Calif.).
Lentiviral vectors expressing unique combinations of small anti-HIV RNAs expressed from a naturally occurring micro RNA cluster (MCM-7) are known. See Chung J, et al. Endogenous MCMI microRNA cluster as a novel platform to multiplex small interfering and nucleolar RNAs for combinational HIV-1 gene therapy. Human gene therapy. 2012; 23:1200-1208. […] CD34+ HSPC were transduced with this vector and used to transplant NSG mice as described in materials and methods. Animals were treated with O^6BG and BCNU at weeks 7 and 8 (2× treatment) or weeks 7, 8 and 9 (3× treatment) following transplantation. Two weeks later (11 weeks following transplantation) animals were necropsied and the level of engraftment of the spleen and bone marrow were determined.

[1] = second experiment, different donor, 7 weeks recovery with weekly Fc/IL-7

O^6-benzylguanine; bis-chloronitrosourea [O^6BG/BCNU]
Enrichment in GM progeny in bone marrow and spleen (2-3 rounds of treatment): 4-8 fold | Engraftment of spleen and bone marrow with human cells relative to untreated control (2× and 3× treated animals, p<0.0001): reduced | Enrichment of frequency of CD45+/GFP+ cells in spleen and bone marrow (2× treatment (weeks 7 and 8)): 10 fold | Enrichment of frequency of CD45+/GFP+ cells in spleen and bone marrow (3× treatment (weeks 7, 8 and 9)): 15 fold | CD45+ cells in bone marrow and spleen [1]: depletion | Enrichment of CD3+/CD4+/GFP+ T-cells [1]: no significant enrichment | Frequency of CD45+/GFP+ human cells and CD14+/CD4+/GFP+ monocytes [1]: concomitant increase | Increase of CD4+/CD14+/GFP+ monocytes in the spleens (three treatments): 3 fold | Increase of average frequency of CD3+/CD4+ T-cells in the spleen (treatment performed three times): 3 fold

Source: patent US20150342165A1, “HUMANIZED MOUSE AND METHODS OF USING THE SAME” (City of Hope, priority 2014, published 2015)
